Like-named read-outs stand apart in the source and are kept apart here.

3 compounds from patent publication US20110177026A1 (priority 2005, published 2011) can be followed below.

Format in all cases: cell-based
In assay [1] the test system is Vesicular stomatitis virus (VSV) Indiana serotype.
The subject of assay [2] is BVDV cytopathic strain NADL.
A further assay has as its system BVDV strain NADL. Put plainly: microbe, parasite or virus in culture.
Where [3] appears, read: VSV-infected cells at MOI=0.01, concentration of 1 mM.
Setting [4] is: cells infected with VSV at MOI>1.

As for `O[C@H]1[C@H](O)[C@@H](O)CN2CC[C@H](O)[C@H]12` [CTS, Castanospermine], the antiviral activity entry in assay [1] (setting [3]) was “exhibited antiviral activity”; in assay [1] (setting [4]), “none”; in assay [2] it was “exhibited antiviral activity”.
As for `CC1OC(OC2C(CO)OC(OC3C(CO)OC(O)C(O)C3O)C(O)C2O)C(O)C(O)C1NC1C=C(CO)C(O)C(O)C1O` [acarbose, O-4,6-dideoxy-4-[[(1S,4R,5S,6S)-4,5,6-trihydroxy-3-(hydroxymethyl)-2-cyclohexen-1-yl]amino]-α-D-glucopyranosyl-(1→4)-O-α-D-glucopyranosyl-(1→4)-D-glucose], the antiviral activity result in assay [1] (setting [3]) is listed as “exhibited antiviral activity”; in assay [1] (setting [4]), “none”; in assay [2], “only the positive control CTS exhibited antiviral activity”. Further, the “inhibition of BVDV replication” value in the assay with BVDV strain NADL is “potent antiviral agents that inhibit BVDV replication”.
Regarding `OCCN1CC(O)C(O)C(O)C1CO` (stereo not drawn) [miglitol, 3,4,5-piperidinetriol, 1-(2-hydroxyethyl)-2-(hydroxymethyl)-, [2R-(2α, 3β,4α,5β)]], the antiviral activity entry in assay [1] (setting [3]) is on record as “exhibited antiviral activity”; in assay [1] (setting [4]) it was “none”; in assay [2], “only the positive control CTS exhibited antiviral activity”. In addition, the “inhibition of BVDV replication” value in the assay with BVDV strain NADL is listed as “potent antiviral agents that inhibit BVDV replication”. For the same compound, in the assay on BVDV strain NADL (Bovine viral diarrhea virus isolates and strains, MDBK, read-out: Dm), the EC50 is 221 µM.
